From US20220274980A1, “PHARMACOLOGICAL INHIBITORS OF THE ENL YEATS DOMAIN” (priority 2019, published 2022) come the findings set out here.

Structures are written as SMILES.

In the first experiment the target is T1, ENL YEATS domain (association with H3K27cr) (Homo sapiens, UniProt Q03111).
T1 sequence (Q03111 1-148): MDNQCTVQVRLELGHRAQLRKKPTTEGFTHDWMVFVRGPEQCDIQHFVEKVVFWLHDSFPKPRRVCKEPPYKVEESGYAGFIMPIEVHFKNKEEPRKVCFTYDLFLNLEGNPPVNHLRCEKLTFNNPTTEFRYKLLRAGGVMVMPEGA
Nature of the experiment: biochemical. Particulars: ENL (YEATS)-H3K27cr HTRF (IC50, μM), Table 1.
`O=C(NC1CCC(O)CC1)c1ccc2nc(-c3ccccc3)cn2c1` (stereo not drawn) [Compound 2] came in with an IC50 of more than 50 µM.

Molecule `CC(C)NC(=O)c1ccc2nc(-c3cccc(OC(F)(F)F)c3)cn2c1` [Compound 3] gave an IC50 of 3.5 µM.

As for `CC(C)NC(=O)c1ccc2nc(-c3ccccc3C(F)(F)F)cn2c1` [Compound 6], the IC50 is more than 50 µM.

For the molecule `CC(C)NC(=O)c1ccc2nc(-c3ccc(C(F)(F)F)cc3)cn2c1` [Compound 7], the IC50 is more than 50 µM.

The molecule `CC(C)N(C)C(=O)c1ccc2nc(-c3ccccc3)cn2c1` [Compound 8] gave an IC50 of more than 50 µM.

In turn, `COc1ccccc1-c1cn2cc(C(=O)NC(C)C)ccc2n1` [Compound 10] came in with an IC50 of more than 50 µM.

As for `O=C(NC1CCCCC1O)c1ccc2nc(-c3ccccc3)cn2c1` (stereo not drawn) [Compound 11], the IC50 is more than 50 µM.

`CC(C)NC(=O)c1ccc2nc(-c3ccccc3OC(F)(F)F)cn2c1` [Compound 12] displayed an IC50 of more than 50 µM.

For the molecule `CCC(CC)NC(=O)c1ccc2nc(-c3ccccc3)cn2c1` [Compound 13], the IC50 is more than 50 µM.

In the case of `CC(C)NC(=O)c1ccc2nc(-c3ccc(OC(F)(F)F)cc3)cn2c1` [Compound 19], the IC50 was more than 50 µM.

For the molecule `CC(C)NC(=O)c1ccc2nc(-c3cccc(C(F)(F)F)c3)cn2c1` [Compound 21], the IC50 was 15 µM.

Consider `Cc1ccc(-c2cn3cc(C(=O)NC(C)C)ccc3n2)cc1C` [Compound 25], for which the IC50 was more than 50 µM.

Staying with this experiment, now noted: ENL (YEATS)-H3K27cr HTRF (IC50, μM), Table 2.
Molecule `O=C(NC1CCC(O)CC1)c1ccc2nc(-c3ccccc3)cn2c1` (stereo not drawn) [Compound 2] gave an IC50 of more than 50 µM.

Turning to `CC(C)NC(=O)c1ccc2nc(-c3cccc(OC(F)(F)F)c3)cn2c1` [Compound 3], half-maximal inhibition (IC50) was put at 3.5 µM.

Consider `CC(C)NC(=O)c1ccc2nc(-c3ccccc3C(F)(F)F)cn2c1` [Compound 6], for which the IC50 was more than 50 µM.

For the molecule `CC(C)NC(=O)c1ccc2nc(-c3ccc(C(F)(F)F)cc3)cn2c1` [Compound 7], the IC50 is more than 50 µM.

With `CC(C)N(C)C(=O)c1ccc2nc(-c3ccccc3)cn2c1` [Compound 8], the IC50 was more than 50 µM.

In turn, `COc1ccccc1-c1cn2cc(C(=O)NC(C)C)ccc2n1` [Compound 10] returned an IC50 of more than 50 µM.

`O=C(NC1CCCCC1O)c1ccc2nc(-c3ccccc3)cn2c1` (stereo not drawn) [Compound 11] showed an IC50 of more than 50 µM.

Molecule `CC(C)NC(=O)c1ccc2nc(-c3ccccc3OC(F)(F)F)cn2c1` [Compound 12] showed an IC50 of more than 50 µM.

With `CCC(CC)NC(=O)c1ccc2nc(-c3ccccc3)cn2c1` [Compound 13], the IC50 is more than 50 µM.

`CC(C)NC(=O)c1ccc2nc(-c3ccc(OC(F)(F)F)cc3)cn2c1` [Compound 19]: the IC50 was more than 50 µM.

In turn, `CC(C)NC(=O)c1ccc2nc(-c3cccc(C(F)(F)F)c3)cn2c1` [Compound 21] registered an IC50 of 15 µM.

In the case of `Cc1ccc(-c2cn3cc(C(=O)NC(C)C)ccc3n2)cc1C` [Compound 25], the IC50 was more than 50 µM.

A further experiment addresses T2, BRD4 bromodomain 1 (BD1) (Homo sapiens, UniProt O60885).
T2 construct: Selectivity against BRD4 bromodomain 1 (BD1), measured by HTRF; His; purchased Cayman 11720
Briefly: BRD4 (BD1)-H4 tetra-acetylated HTRF histone-binding assay. The note with it: Table 1. Put shortly:
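Recombinant BRD4 BD1 (10 nM) was combined with 13.3 nM biotinylated tetra-acetylated H4 peptide, Eu-anti-His antibody and APC-streptavidin in HEPES buffer, pH 7. Compound was pin-transferred and plates incubated ≥2 h before HTRF reading (665/620 nm ratio). Percent inhibition was normalised to vehicle (maximum) and no-peptide (minimum) wells.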
On the technique in general: Time-resolved FRET reads energy transfer from a long-lived donor to a nearby acceptor.
Molecule `O=C(NC1CCC(O)CC1)c1ccc2nc(-c3ccccc3)cn2c1` (stereo not drawn) [Compound 2] yielded an IC50 of more than 50 µM.

As to `CC(C)NC(=O)c1ccc2nc(-c3cccc(OC(F)(F)F)c3)cn2c1` [Compound 3], the IC50 was more than 50 µM.

For `CC(C)NC(=O)c1ccc2nc(-c3ccccc3C(F)(F)F)cn2c1` [Compound 6], the IC50 is more than 50 µM.

For `CC(C)NC(=O)c1ccc2nc(-c3ccc(C(F)(F)F)cc3)cn2c1` [Compound 7], the IC50 is more than 50 µM.

In the case of `CC(C)N(C)C(=O)c1ccc2nc(-c3ccccc3)cn2c1` [Compound 8], the IC50 is more than 50 µM.

For the molecule `COc1ccccc1-c1cn2cc(C(=O)NC(C)C)ccc2n1` [Compound 10], the IC50 was more than 50 µM.

`O=C(NC1CCCCC1O)c1ccc2nc(-c3ccccc3)cn2c1` (stereo not drawn) [Compound 11]: the IC50 is more than 50 µM.

As to `CC(C)NC(=O)c1ccc2nc(-c3ccccc3OC(F)(F)F)cn2c1` [Compound 12], the IC50 is more than 50 µM.

Turning to `CCC(CC)NC(=O)c1ccc2nc(-c3ccccc3)cn2c1` [Compound 13], the IC50 is more than 50 µM.

The molecule `CC(C)NC(=O)c1ccc2nc(-c3ccc(OC(F)(F)F)cc3)cn2c1` [Compound 19] gave an IC50 of more than 50 µM.

As to `CC(C)NC(=O)c1ccc2nc(-c3cccc(C(F)(F)F)c3)cn2c1` [Compound 21], the concentration for half-maximal inhibition (IC50) is more than 50 µM.

`Cc1ccc(-c2cn3cc(C(=O)NC(C)C)ccc3n2)cc1C` [Compound 25] displayed an IC50 of more than 50 µM.

Staying with this experiment, now noted: Table 2.
Regarding `O=C(NC1CCC(O)CC1)c1ccc2nc(-c3ccccc3)cn2c1` (stereo not drawn) [Compound 2], the concentration for half-maximal inhibition (IC50) was more than 50 µM.

As to `CC(C)NC(=O)c1ccc2nc(-c3cccc(OC(F)(F)F)c3)cn2c1` [Compound 3], the IC50 is more than 50 µM.

Regarding `CC(C)NC(=O)c1ccc2nc(-c3ccccc3C(F)(F)F)cn2c1` [Compound 6], the IC50 was more than 50 µM.

`CC(C)NC(=O)c1ccc2nc(-c3ccc(C(F)(F)F)cc3)cn2c1` [Compound 7]: the IC50 is more than 50 µM.

`CC(C)N(C)C(=O)c1ccc2nc(-c3ccccc3)cn2c1` [Compound 8] came in with an IC50 of more than 50 µM.

The molecule `COc1ccccc1-c1cn2cc(C(=O)NC(C)C)ccc2n1` [Compound 10] gave an IC50 of more than 50 µM.

As for `O=C(NC1CCCCC1O)c1ccc2nc(-c3ccccc3)cn2c1` (stereo not drawn) [Compound 11], the IC50 is more than 50 µM.

`CC(C)NC(=O)c1ccc2nc(-c3ccccc3OC(F)(F)F)cn2c1` [Compound 12] showed an IC50 of more than 50 µM.

Molecule `CCC(CC)NC(=O)c1ccc2nc(-c3ccccc3)cn2c1` [Compound 13] gave an IC50 of more than 50 µM.

`CC(C)NC(=O)c1ccc2nc(-c3ccc(OC(F)(F)F)cc3)cn2c1` [Compound 19] had an IC50 of more than 50 µM.

Molecule `CC(C)NC(=O)c1ccc2nc(-c3cccc(C(F)(F)F)c3)cn2c1` [Compound 21] had an IC50 of more than 50 µM.

Regarding `Cc1ccc(-c2cn3cc(C(=O)NC(C)C)ccc3n2)cc1C` [Compound 25], the IC50 is more than 50 µM.

Another experiment has as its target T3, ENL(YEATS)-HiBiT (Homo sapiens, UniProt Q03111).
T3 sequence (Q03111 1-138 limits assumed): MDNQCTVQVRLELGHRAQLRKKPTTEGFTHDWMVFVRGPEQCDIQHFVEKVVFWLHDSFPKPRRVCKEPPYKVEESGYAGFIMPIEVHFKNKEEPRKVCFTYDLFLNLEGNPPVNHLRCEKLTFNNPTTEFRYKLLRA
Test: not given
Particulars: read-out: ENL YEATS CETSA (IC50); Table 2; OCI/AML-2 cells expressing ENL(YEATS)-HiBiT. (In general: The HiBiT peptide binds its large partner to form an active luciferase.)
Take `O=C(NC1CCC(O)CC1)c1ccc2nc(-c3ccccc3)cn2c1` (stereo not drawn) [Compound 2]: the IC50 is more than 100 µM.

With `CC(C)NC(=O)c1ccc2nc(-c3cccc(OC(F)(F)F)c3)cn2c1` [Compound 3], the IC50 was more than 100 µM.

Regarding `CC(C)NC(=O)c1ccc2nc(-c3ccccc3C(F)(F)F)cn2c1` [Compound 6], the IC50 is more than 100 µM.

`CC(C)NC(=O)c1ccc2nc(-c3ccc(C(F)(F)F)cc3)cn2c1` [Compound 7]: the IC50 was more than 100 µM.

On to `CC(C)N(C)C(=O)c1ccc2nc(-c3ccccc3)cn2c1` [Compound 8], for which the IC50 was more than 100 µM.

Consider `COc1ccccc1-c1cn2cc(C(=O)NC(C)C)ccc2n1` [Compound 10], for which the IC50 was more than 100 µM.

On to `O=C(NC1CCCCC1O)c1ccc2nc(-c3ccccc3)cn2c1` (stereo not drawn) [Compound 11], for which the IC50 was more than 100 µM.

On to `CC(C)NC(=O)c1ccc2nc(-c3ccccc3OC(F)(F)F)cn2c1` [Compound 12], for which the IC50 was more than 100 µM.

Consider `CCC(CC)NC(=O)c1ccc2nc(-c3ccccc3)cn2c1` [Compound 13], for which the IC50 was more than 100 µM.

Regarding `CC(C)NC(=O)c1ccc2nc(-c3ccc(OC(F)(F)F)cc3)cn2c1` [Compound 19], the IC50 was more than 100 µM.

For `CC(C)NC(=O)c1ccc2nc(-c3cccc(C(F)(F)F)c3)cn2c1` [Compound 21], the IC50 is more than 100 µM.

As to `Cc1ccc(-c2cn3cc(C(=O)NC(C)C)ccc3n2)cc1C` [Compound 25], the IC50 was more than 100 µM.

A further experiment addresses T3, ENL(YEATS)-HiBiT. Briefly: cell-based.
Conditions: not given
With `O=C(NC1CCC(O)CC1)c1ccc2nc(-c3ccccc3)cn2c1` (stereo not drawn) [Compound 2], the IC50 was more than 100 µM.

On to `CC(C)NC(=O)c1ccc2nc(-c3cccc(OC(F)(F)F)c3)cn2c1` [Compound 3], for which the IC50 was more than 100 µM.

In turn, `CC(C)NC(=O)c1ccc2nc(-c3ccccc3C(F)(F)F)cn2c1` [Compound 6] yielded an IC50 of more than 100 µM.

For `CC(C)NC(=O)c1ccc2nc(-c3ccc(C(F)(F)F)cc3)cn2c1` [Compound 7], the IC50 was more than 100 µM.

In turn, `CC(C)N(C)C(=O)c1ccc2nc(-c3ccccc3)cn2c1` [Compound 8] gave an IC50 of more than 100 µM.

Molecule `COc1ccccc1-c1cn2cc(C(=O)NC(C)C)ccc2n1` [Compound 10] returned an IC50 of more than 100 µM.

In turn, `O=C(NC1CCCCC1O)c1ccc2nc(-c3ccccc3)cn2c1` (stereo not drawn) [Compound 11] yielded an IC50 of more than 100 µM.

As for `CC(C)NC(=O)c1ccc2nc(-c3ccccc3OC(F)(F)F)cn2c1` [Compound 12], the IC50 was more than 100 µM.

In turn, `CCC(CC)NC(=O)c1ccc2nc(-c3ccccc3)cn2c1` [Compound 13] returned an IC50 of more than 100 µM.

`CC(C)NC(=O)c1ccc2nc(-c3ccc(OC(F)(F)F)cc3)cn2c1` [Compound 19]: the IC50 was more than 100 µM.

In turn, `CC(C)NC(=O)c1ccc2nc(-c3cccc(C(F)(F)F)c3)cn2c1` [Compound 21] yielded an IC50 of more than 100 µM.

In the case of `Cc1ccc(-c2cn3cc(C(=O)NC(C)C)ccc3n2)cc1C` [Compound 25], the IC50 is more than 100 µM.

A word on the IC50: it is the concentration needed to halve the response being measured.
